# Reference: patent US8993604B2, “Treatment and prevention of dengue virus infections” (Siga Technologies, Inc., priority 2009, dated 2015)
# Columns and labels:
# [1] = tested on: Dengue-2 (Strain New Guinea C); assay: Viral yield assay in Vero cells; format: cell-based; settings: Dengue virus; Vero cells, MOI 0.1, harvested 48 hours post infection; read-out: Activity (anti-dengue 2 viral activity, EC50 class)
# Summary of the method: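 Infect Vero cells with virus (MOI 0.1), add compound or DMSO, incubate at 37° C, collect progeny at 48 hours post infection, then titrate on Vero cells to obtain EC50.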
# [2] = tested on: all four serotypes of dengue; assay: Yield assays against each of the four serotypes of dengue; format: cell-based, dengue virus; settings: yield assays at several drug concentrations
# Experimental: Initially, the chemical structures of the hit compounds were examined for chemical tractability. […] Hits that passed this medicinal chemistry filter were evaluated for their potency. Compound potency was determined by evaluating inhibitory activity across a broad range of concentrations. Nonlinear regression was used to generate best-fit inhibition curves and to calculate the 50% effective concentration (EC50). The selectivity or specificity of a given compound is typically expressed as a ratio of its cytotoxicity to its biological effect. A cell proliferation assay is used to calculate a 50% cytotoxicity concentration (CC50); the ratio of this value to the EC50 is referred to as the therapeutic index (T.I.=CC50/EC50). Two types of assays have been used to determine cytotoxicity, both of which are standard methods for quantitating the reductase activity produced in metabolically active cells (22). […] Verification that these compounds act against each of the four serotypes of dengue was done with yield assays carried out at several drug concentrations, and the titer determined for each.
# Compounds that were active in the primary screen were tested for activity in viral yield assays. […] The EC50 was calculated through ExcelFit. Activities against other serotypes of dengue virus were determined in a similar way.
compound,measurement,setting,value
"COc1ccc(C(=O)Nc2ccc(-c3nc4ccc(C)cc4s3)cc2)c(OC)c1 [Compound 3, 2,4-Dimethoxy-N-[4-(6-methyl-benzothiazol-2-yl)-phenyl]-benzamide]",EC50,[1],< 1000 nM
same,activity against all four serotypes of dengue,[2],activity against all four serotypes of dengue
